According to patent US20240277796A1, “METHODS FOR INHIBITING RAS” (Revolution Medicines, Inc., priority 2021, published 2024):
Where “and” joins values, the source holds several entries; their conditions need not be identical. Identical values can stand only once. Like-named read-outs stand apart in the source and are kept apart here.

Tests used:
[1] = 18-membered ring, DCM
[2] = tested on: NCI-H358 (K-Ras G12C); test: pERK potency assay, NCI-H358; format: cell-based; details: Homo sapiens; NCI-H358 cells, 4 hours incubation with compound
Method: The purpose of this assay was to measure the ability of test compounds to inhibit K-Ras in cells. Activated K-Ras induces increased phosphorylation of ERK at Threonine 202 and Tyrosine 204 (pERK). This procedure measures a decrease in cellular pERK in response to test compounds. The procedure described below in NCI-H358 cells is applicable to K-Ras G12C. […]
NCI-H358 cells were grown and maintained using media and procedures recommended by the ATCC. On the day prior to compound addition, cells were plated in 384-well cell culture plates (40 μl/well) and grown overnight in a 37° C., 5% CO2 incubator. Test compounds were prepared in 10, 3-fold dilutions in DMSO, with a high concentration of 10 mM. On the day of assay, 40 nL of test compound was added to each well of cell culture plate using an Echo550 liquid handler (LabCyte®). Concentrations of test compound were tested in duplicate. After compound addition, cells were incubated 4 hours at 37° C., 5% CO2. Following incubation, culture medium was removed and cells were washed once with phosphate buffered saline.
In some experiments, cellular pERK level was determined using the AlphaLISA SureFire Ultra p-ERK1/2 Assay Kit (PerkinElmer). Cells were lysed in 25 μL lysis buffer, with shaking at 600 RPM at room temperature. Lysate (10 μL) was transferred to a 384-well Opti-plate (PerkinElmer) and 5 μL acceptor mix was added. After a 2-hour incubation in the dark, 5 μL donor mix was added, the plate was sealed, and incubated 2 hours at room temperature. Signal was read on an Envision plate reader (PerkinElmer) using standard AlphaLISA settings. Analysis of raw data was carried out in Excel (Microsoft) and Prism (GraphPad). Signal was plotted vs. the decadal logarithm of compound concentration, and IC50 was determined by fitting a 4-parameter sigmoidal concentration response model.
In other experiments, cellular pERK was determined by In-Cell Western. Following compound treatment, cells were washed twice with 200 μL tris buffered saline (TBS) and fixed for 15 minutes with 150 μL 4% formaldehyde in TBS. Fixed cells were washed 4 times for 5 minutes with TBS containing 0.1% Triton X-100 (TBST) and then blocked with 100 μL Odyssey blocking buffer (LI-COR) for 60 minutes at room temperature. Primary antibody (pERK, CST-4370, Cell Signaling Technology) was diluted 1:200 in blocking buffer, and 50 μL were added to each well and incubated overnight at 4° C. Cells were washed 4 times for 5 minutes with TBST. Secondary antibody (IR-800CW rabbit, LI-COR, diluted 1:800) and DNA stain DRAQ5 (LI-COR, diluted 1:2000) were added and incubated 1-2 hours at room temperature. Cells were washed 4 times for 5 minutes with TBST. Plates were scanned on a Li-COR Odyssey CLx Imager. Analysis of raw data was carried out in Excel (Microsoft) and Prism (GraphPad). Signal was plotted vs. the decadal logarithm of compound concentration, and IC50 was determined by fitting a 4-parameter sigmoidal concentration response model.

| IC50 [2] | Compound | also measured |
| --- | --- | --- |
| – | CCn1c(-c2cc(N3CCN4CCCC[C@@H]4C3)cnc2[C@H](C)OC)c2c3cc(ccc31)-c1cccc(c1)C[C@H](NC(=O)OC(C)(C)C)C(=O)N1CCC[C@H](N1)C(=O)OCC(C)(C)C2 | ring closure, isolated yield ([1]; from CCn1c(-c2cc(N3CCN4CCCC[C@@H]4C3)cnc2[C@H](C)OC)c(CC(C)(C)CO)c2cc(-c3cccc(C[C@H](NC(=O)OC(C)(C)C)C(=O)N4CCC[C@@H](C(=O)O)N4)c3)ccc21, ester bond, EDCI/HOBt/DIPEA, 11.3 mM, 16.0 h): 62% |
| – | CCn1c(-c2cc(N3CCN4CCOC[C@@H]4C3)cnc2[C@H](C)OC)c2c3cc(ccc31)C1=CCCN(C1)C[C@H](NC(=O)OC(C)(C)C)C(=O)N1CCC[C@H](N1)C(=O)OCC(C)(C)C2 | ring closure, isolated yield ([1]; from CCn1c(-c2cc(N3CCN4CCOC[C@@H]4C3)cnc2[C@H](C)OC)c(CC(C)(C)CO)c2cc(C3=CCCN(C[C@H](NC(=O)OC(C)(C)C)C(=O)N4CCC[C@@H](C(=O)O)N4)C3)ccc21, ester bond, EDC.HCl/HOBt/DIEA, 11.3 mM, 0.0 °C, 2.0 h): 67% |
| – | CO[C@@H](C)c1ncc(N2CCN3CCOC[C@@H]3C2)cc1-c1c2c3cc(ccc3n1CC(F)(F)F)-c1cccc(c1)C[C@H](NC(=O)OC(C)(C)C)C(=O)N1CCC[C@H](N1)C(=O)OCC(C)(C)C2 | ring closure, isolated yield ([1]; from CO[C@@H](C)c1ncc(N2CCN3CCOC[C@@H]3C2)cc1-c1c(CC(C)(C)CO)c2cc(-c3cccc(C[C@H](NC(=O)OC(C)(C)C)C(=O)N4CCC[C@@H](C(=O)O)N4)c3)ccc2n1CC(F)(F)F, ester bond, EDCI/HOBt/DIPEA, 5.3 mM, 16.0 h): 98% |
| – | CO[C@@H](C)c1ncccc1-c1c2c3cc(ccc3n1CC(F)(F)F)-c1coc(n1)C[C@H](NC(=O)OCc1ccccc1)C(=O)N1CCC[C@H](N1)C(=O)OCC(C)(C)C2 | ring closure, isolated yield ([1]; from CO[C@@H](C)c1ncccc1-c1c(CC(C)(C)COC(=O)[C@@H]2CCCNN2)c2cc(-c3coc(C[C@H](NC(=O)OCc4ccccc4)C(=O)O)n3)ccc2n1CC(F)(F)F, amide bond, EDCI/HOBt/DIEA, 6.3 mM, 16.0 h): 21% |
| – | CO[C@@H](C)c1ncccc1-c1c2c3cc(ccc3n1CC(F)(F)F)C1CCN(C1)C[C@H](NC(=O)OC(C)(C)C)C(=O)N1CCC[C@H](N1)C(=O)OCC(C)(C)C2 | ring closure, isolated yield ([1]; from CO[C@@H](C)c1ncccc1-c1c(CC(C)(C)CO)c2cc(C3CCN(C[C@H](NC(=O)OC(C)(C)C)C(=O)N4CCC[C@@H](C(=O)O)N4)C3)ccc2n1CC(F)(F)F, ester bond, EDCI/HOBt/DIEA, 7.1 mM, 16.0 h): 21% |
| > 1000 nM | C=CC(=O)N1CCOC2(CCN(C(=O)N(C)[C@H](C(=O)N[C@H]3Cc4cncc(n4)-c4ccc5c(c4)c(c(-c4cccnc4[C@H](C)OC)n5CC)CC(C)(C)COC(=O)[C@@H]4CCCN(N4)C3=O)C(C)C)CC2)C1 (atropisomer, axis not shown) [EA36] | – |
| > 1000 nM | C=CC(=O)N1COC2(CCN(C(=O)N(C)[C@H](C(=O)N[C@H]3CC4=NC=C(O4)c4ccc5c(c4)c(c(-c4cccnc4[C@H](C)OC)n5CC)CC(C)(C)COC(=O)[C@@H]4CCCN(N4)C3=O)C(C)C)CC2)C1 (atropisomer, axis not shown) [EA37] | – |
| > 1000 nM | C=CC(=O)N1CCN(CC)C2(CCN(C(=O)N(C)[C@H](C(=O)N[C@H]3C[C@H]4CN(CCO4)c4ccc5c(c4)c(c(-c4cccnc4[C@H](C)OC)n5CC)CC(C)(C)COC(=O)[C@@H]4CCCN(N4)C3=O)C(C)C)CC2)C1 (atropisomer, axis not shown) [EA38] | – |
| > 1000 nM | C=CC(=O)N1CC2(CCN(C(=O)N(C)[C@H](C(=O)N[C@H]3C[C@H]4CN(CCO4)c4ccc5c(c4)c(c(-c4cccnc4[C@H](C)OC)n5CC)CC(C)(C)COC(=O)[C@@H]4CCCN(N4)C3=O)C(C)C)CC2)C1 (atropisomer, axis not shown) [EA121] | – |
| > 1000 nM | C=CC(=O)N1CCOC2(CCN(C(=O)N(C)[C@H](C(=O)N[C@H]3Cc4cncc(c4)-c4ccc5c(c4)c(c(-c4cccnc4[C@H](C)OC)n5CC)CC(C)(C)COC(=O)[C@@H]4CCCN(N4)C3=O)C(C)C)CC2)C1 (atropisomer, axis not shown) [EA124] | – |
| > 1000 nM | CCn1c(-c2cccnc2[C@H](C)OC)c2c3cc(ccc31)N1CCO[C@@H](C[C@H](NC(=O)[C@H](C(C)C)N(C)C(=O)N3CCC4(CC3)CN(C(=O)/C=C/CF)C4)C(=O)N3CCC[C@H](N3)C(=O)OCC(C)(C)C2)C1 (atropisomer, axis not shown) [EA128] | – |
| > 890 nM | C=CC(=O)N1CCOC2(CCN(C(=O)N(C)[C@H](C(=O)N[C@H]3C[C@@]4(C)CN(CCO4)c4ccc5c(c4)c(c(-c4cccnc4[C@H](C)OC)n5CC)CC(C)(C)COC(=O)[C@@H]4CCCN(N4)C3=O)C(C)C)CC2)C1 (atropisomer, axis not shown) [EA130] | – |
| > 1000 nM | C=CC(=O)N1CCOC2(C1)CN(C(=O)N(C)[C@H](C(=O)N[C@H]1C[C@H]3CN(CCO3)c3ccc4c(c3)c(c(-c3cccnc3[C@H](C)OC)n4CC)CC(C)(C)COC(=O)[C@@H]3CCCN(N3)C1=O)C(C)C)C2 (atropisomer, axis not shown) [EA136] | – |
| > 1000 nM | C=CC(=O)N1CCN(C)C2(CCN(C(=O)N(C)[C@H](C(=O)N[C@H]3C[C@H]4CN(CCO4)c4ccc5c(c4)c(c(-c4cccnc4[C@H](C)OC)n5CC)CC(C)(C)COC(=O)[C@@H]4CCCN(N4)C3=O)C(C)C)CC2)C1 (atropisomer, axis not shown) [EA189] | – |
| > 1000 nM | C=CC(=O)N1CCOC2(CCN(C(=O)N(C)[C@H](C(=O)N[C@H]3Cc4nccc(n4)-c4ccc5c(c4)c(c(-c4cccnc4[C@H](C)OC)n5CC)CC(C)(C)COC(=O)[C@@H]4CCCN(N4)C3=O)C(C)C)CC2)C1 (atropisomer, axis not shown) [EA191] | – |
| > 1000 nM | CCn1c(-c2cccnc2[C@H](C)OC)c2c3cc(ccc31)C1=CCCN(C1)C[C@H](NC(=O)[C@H](C(C)C)N(C)C(=O)N1CCC3(CCN(C(=O)/C=C/CN(C)C)C3)CC1)C(=O)N1CCC[C@H](N1)C(=O)OCC(C)(C)C2 (atropisomer, axis not shown) [EA192] | – |
| – | prop-2-en-1-yl N-[(7S,13S,19M)-21-ethyl-20-[2-[(1 S)-1-methoxyethyl]pyridin-3-yl]-17,17-dimethyl-8,14-dioxo-4,15-dioxa-3,9,21,27,28-pentaazapentacyclo[17.5.2.1^[2,5]0.1^[9,13]0.0^[22,26]]octacosa-1(25),2,5(28),19,22(26),23-hexaen-7-yl]carbamate | ring closure, isolated yield ([1]; amide bond, HATU/DIEA, 139.0 mM): 33% |
| – | tert-butyl ((6^3S,4S)-1^2-(2-((S)-1-methoxyethyl)pyridin-3-yl)-10,10-dimethyl-5,7-dioxo-1^1-(2,2,2-trifluoroethyl)-6^1,6^2,6^3,6^4,6^5,6^6-hexahydro-1^1H-8-oxa-1(5,3)-indola-6(1,3)-pyridazina-2(3,1)-azetidinacycloundecaphane-4-yl)carbamate | ring closure, isolated yield ([1]; ester bond, EDCI/HOBt/DIEA, 6.4 mM, 30.0 °C): 37% |
| – | tert-butyl ((6^3S,4S,Z)-11-ethyl-1^2-(2-((S)-1-methoxyethyl)pyridin-3-yl)-10,10-dimethyl-5,7-dioxo-6^1,6^2,6^3,6^4,6^5,6^6-hexahydro-1^1H-8-oxa-2(5,3)-oxadiazola-1(5,3)-indola-6(1,3)-pyridazinacycloundecaphane-4-yl)carbamate | ring closure, isolated yield ([1]; ester bond, EDCI/HOBt/DIEA, 6.8 mM): 18% |
| – | tert-butyl ((6^3S, 4S)-1^2-(2-((S)-1-methoxyethyl) pyridin-3-yl)-10,10-dimethyl-5,7-dioxo-1^1-(2,2,2-trifluoroethyl)-6^1,6^2,6^3,6^4,6^5,6^6-hexahydro-1^1H-8-oxa-1(5,3)-indola-6(1,3)-pyridazina-2(3,1)-piperidinacycloundecaphane-4-yl)carbamate | ring closure, isolated yield ([1]; ester bond, EDCI/HOBt/DIEA, 6.1 mM): 8% and 9% |
